Measured values taken from ChEMBL document CHEMBL5223088, “EP2 Antagonists (2011-2021): A Decade's Journey from Discovery to Therapeutics” (J Med Chem, 2021).
In brackets after ≈: the same amount, converted by molar mass.

Legend:
[1] = biological target: T1, Prostaglandin E2 receptor EP2 subtype (Homo sapiens, UniProt P43116); test: Potency index, ratio of PF-0418948 Ki to test compound Ki for binding affinity to human EP2
[2] = biological target: T2, Prostaglandin D2 receptor (Homo sapiens, UniProt Q13258); test: Binding affinity to DP1 receptor in human mast cell assessed as inhibition constant; format: cell-based
T2 sequence (Q13258 whole entry): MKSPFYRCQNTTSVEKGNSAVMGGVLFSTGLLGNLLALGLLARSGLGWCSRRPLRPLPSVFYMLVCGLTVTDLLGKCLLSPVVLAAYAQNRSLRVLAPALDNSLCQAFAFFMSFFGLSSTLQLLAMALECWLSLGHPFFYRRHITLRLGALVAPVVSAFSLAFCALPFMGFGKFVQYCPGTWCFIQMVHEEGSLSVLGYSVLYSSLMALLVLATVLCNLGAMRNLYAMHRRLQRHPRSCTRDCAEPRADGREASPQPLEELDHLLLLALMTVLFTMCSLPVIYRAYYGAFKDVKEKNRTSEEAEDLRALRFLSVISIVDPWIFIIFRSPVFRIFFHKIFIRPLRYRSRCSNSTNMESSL

[3] = biological target: T3, Prostaglandin E2 receptor EP4 subtype (Homo sapiens, UniProt P35408); test: Binding affinity to EP4 receptor in human mast cell assessed as inhibition constant; format: cell-based
[4] = biological target: T1, Prostaglandin E2 receptor EP2 subtype; test: Binding affinity to EP2 receptor in human mast cell assessed as inhibition constant; format: cell-based
[5] = Half life in mouse C57BL/6 plasma at 20 mg/kg,ip by LC-MS/MS analysis; format: ADME, organism-based; details: C57BL/6, mouse
[6] = Ratio of drug level in brain to plasma in C57BL/6 mouse at 20 mg/kg, ip by LC-MS/MS analysis; format: ADME, organism-based; details: read-out: BPR
[7] = Ratio of drug level in brain to plasma in pilocarpine-induced Sprague-Dawley rat at 25 mg/kg, ip after 6 hrs by LC-MS/MS analysis
[8] = biological target: T1, Prostaglandin E2 receptor EP2 subtype; test: Binding affinity to human EP2 receptor expressed in C6 cells assessed as binding constant at 10 mins by TR-FRET cAMP functional assay; format: cell-based; details: filed as antagonist
[9] = biological target: T3, Prostaglandin E2 receptor EP4 subtype; test: Binding affinity to EP4 receptor (unknown origin) assessed as binding constant; details: filed as antagonist
[10] = Half life in C57BL/6 mouse at 10 mg/kg, po by LC-MS/MS analysis; format: ADME, organism-based; details: in vivo
[11] = biological target: T1, Prostaglandin E2 receptor EP2 subtype; test: Binding affinity to human EP2 receptor expressed in rat C6 cells assessed as binding constant; format: cell-based; details: filed as antagonist
[12] = biological target: T4, Prostaglandin D2 receptor (Homo sapiens) (UniProt Q13258); test: Binding affinity to human DP1 receptor expressed in rat C6 cells assessed as binding constant; format: cell-based; details: filed as antagonist
T4 sequence (whole entry): T2 sequence (Q13258 whole entry)

[13] = Ratio of drug level in brain to plasma in C57BL/6 mouse at 10 mg/kg, po by LC-MS/MS analysis; format: ADME, organism-based; details: read-out: BPR
[14] = Aqueous solubility of compound in PBS buffer at pH 7.4 by nephelometric analysis; format: ADME
[15] = biological target: T5, Prostaglandin E2 receptor EP3 subtype (Homo sapiens, UniProt P43115); test: Binding affinity to EP3 receptor (unknown origin) assessed as inhibition constant
T5 sequence (P43115 whole entry): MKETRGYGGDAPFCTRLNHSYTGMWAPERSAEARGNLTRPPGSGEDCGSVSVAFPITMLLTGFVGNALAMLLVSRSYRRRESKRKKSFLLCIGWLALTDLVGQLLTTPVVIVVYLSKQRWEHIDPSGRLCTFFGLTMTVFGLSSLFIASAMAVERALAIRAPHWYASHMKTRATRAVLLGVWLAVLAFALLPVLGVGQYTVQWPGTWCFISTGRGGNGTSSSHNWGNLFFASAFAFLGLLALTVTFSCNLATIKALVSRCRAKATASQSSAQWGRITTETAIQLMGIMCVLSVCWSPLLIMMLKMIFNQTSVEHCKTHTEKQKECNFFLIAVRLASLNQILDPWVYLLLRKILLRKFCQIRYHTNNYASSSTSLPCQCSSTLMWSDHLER

[16] = biological target: T2, Prostaglandin D2 receptor; test: Binding affinity to human DP1 receptor expressed in CHO cells assessed as inhibition constant; format: cell-based
[17] = biological target: T3, Prostaglandin E2 receptor EP4 subtype; test: Binding affinity to human EP4 receptor expressed in CHO cells assessed as inhibition constant; format: cell-based
[18] = biological target: T6, Prostaglandin E2 receptor EP1 subtype (Homo sapiens, UniProt P34995); test: Binding affinity to EP1 receptor (unknown origin) assessed as inhibition constant
T6 sequence (P34995 whole entry): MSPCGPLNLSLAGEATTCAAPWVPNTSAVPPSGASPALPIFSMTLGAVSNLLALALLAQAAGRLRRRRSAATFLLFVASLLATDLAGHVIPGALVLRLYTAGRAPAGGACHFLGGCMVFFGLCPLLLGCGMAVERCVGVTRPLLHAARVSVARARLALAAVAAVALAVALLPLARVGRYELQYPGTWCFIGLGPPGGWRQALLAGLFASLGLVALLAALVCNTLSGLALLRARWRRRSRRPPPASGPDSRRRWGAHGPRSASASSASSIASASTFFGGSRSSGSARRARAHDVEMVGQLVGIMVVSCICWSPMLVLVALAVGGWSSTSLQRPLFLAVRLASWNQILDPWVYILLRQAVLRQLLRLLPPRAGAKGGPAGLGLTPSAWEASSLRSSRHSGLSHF

[19] = Ratio of drug level in brain to plasma in C57BL/6 mouse at 3 mg/kg, ip by LC-MS/MS analysis; format: ADME, organism-based; details: read-out: BPR
[20] = Solubility of the compound; format: ADME

T1 sequence (P43116 whole entry): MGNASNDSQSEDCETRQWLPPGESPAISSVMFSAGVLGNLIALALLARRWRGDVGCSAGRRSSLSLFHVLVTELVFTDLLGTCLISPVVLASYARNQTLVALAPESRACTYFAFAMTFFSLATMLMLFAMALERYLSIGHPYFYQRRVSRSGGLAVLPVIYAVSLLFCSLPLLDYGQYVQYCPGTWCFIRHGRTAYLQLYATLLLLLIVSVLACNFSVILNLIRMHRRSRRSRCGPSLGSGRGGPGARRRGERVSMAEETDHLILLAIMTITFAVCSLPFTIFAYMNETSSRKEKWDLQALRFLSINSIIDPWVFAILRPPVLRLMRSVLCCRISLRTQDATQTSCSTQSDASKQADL
T3 sequence (P35408 whole entry): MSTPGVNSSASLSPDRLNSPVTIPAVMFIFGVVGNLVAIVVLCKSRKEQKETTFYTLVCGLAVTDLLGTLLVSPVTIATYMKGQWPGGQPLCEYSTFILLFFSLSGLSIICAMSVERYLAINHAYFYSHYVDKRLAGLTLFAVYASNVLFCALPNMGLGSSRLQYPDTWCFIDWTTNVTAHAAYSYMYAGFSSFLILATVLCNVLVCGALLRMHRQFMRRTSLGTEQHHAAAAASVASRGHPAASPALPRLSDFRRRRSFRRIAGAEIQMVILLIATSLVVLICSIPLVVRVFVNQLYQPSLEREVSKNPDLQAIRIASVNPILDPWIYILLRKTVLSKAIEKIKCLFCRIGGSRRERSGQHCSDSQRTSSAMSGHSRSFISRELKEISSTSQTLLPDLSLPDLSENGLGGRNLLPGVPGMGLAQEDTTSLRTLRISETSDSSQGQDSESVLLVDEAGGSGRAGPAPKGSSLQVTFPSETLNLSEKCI

Structure (SMILES): COc1ccc(C(=O)N2CCC(COc3ccc(-c4ccc(C#N)cc4)cc3)(C(=O)O)C2)cc1 (stereo not given)
- Ratio Ki [1]: 10
- Ki [2]: 1.2 µM
- Ki [3]: 16.3 µM
- Ki [4]: 0.00063 µM

Structure (SMILES): Cc1[nH]c2ccccc2c1CCNC(=O)c1ccc(-c2c[nH]cn2)cc1
- half-life [5]: 2.8 h
- Kp [6]: 0.02
- Kp at 6 h [7]: 0.03
- Kb [8]: 0.0132 µM

Structure (SMILES): Cc1cc2ccccc2n1CCNC(=O)c1ccc(-c2nnn[nH]2)cc1
- Kb [9]: 15 µM
- half-life [10]: 10.5 h
- Kb [11]: 0.0485 µM
- Kb [12]: 18 µM
- Kp [13]: 0.02
- solubility kinetic [14]: 500 µM (≈ 173 µg/mL)

Structure (SMILES): COc1ccc2cc(OCC3(C(=O)O)CN(C(=O)c4ccc(F)cc4)C3)ccc2c1 [PF-04418948]
- Ki [15]: > 10 µM
- Ki [16]: > 10 µM
- Ki [17]: > 10 µM
- Ki [18]: > 10 µM

Structure (SMILES): COc1cc(/C=C/C(=O)NCCn2c(C)cc3ccccc32)cc(OC)c1OC
- Kp [19]: 0.3
- solubility [20]: 45 µM (≈ 17.8 µg/mL)
